The test system of this test is osteoclast differentiation. The experiment in a line: Osteoclast differentiation in co-culture of mouse bone marrow cells and ST2 cells, TRAP staining (Examples 8-9). The class given is cell-based. To be noted: for % number of osteoclast (vs. solvent control group): 0.1 μM each, day 7; for activity at 0.1 µM: Mus musculus, Osteoclast, 168 h, Individual treatment (compounds), day 7, read-out: % number of osteoclast (vs. solvent control group). The method in brief: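 Readout was TRAP-positive multinucleated (≥6 nuclei) cells on day 7, reported as % of 0.1% DMSO control, mean±SD of 4 wells. Cells were mouse (male ddY) bone marrow plus ST2 co-cultures driven by 10^−8 M vitamin D3/dexamethasone. Benzamidines, alendronic acid or risedronic acid were added at 0.1 μM alone or combined, with media renewed days 3 and 5.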

The mark [1] stands for this setting: Combination treatment (alendronic acid + compounds).
Setting [2] is: Combination treatment (risedronic acid + compounds).

The record followed here is patent publication US8008329B2 (Dong Wha Pharmaceutical Co., Ltd., priority 2008, dated 2011).

Marks after values point to notes of the source that are not given here.

Turning to `CCc1sc(N2CCCCC2)nc1-c1ccc(OCCCCCOc2ccc(C(=N)NO)cc2)cc1` [Compound 166, N-hydroxy-4-{5-[4-(5-ethyl-2-piperidino-1,3-thiazol-4-yl)phenoxy]pentyloxy}-benzamidine], the activity at 0.1 µM came to 73 ± 4.4%. For the same compound, the “% number of osteoclast (vs. solvent control group)” value (from here on “% number of osteoclast”) under setting [1] is given as 43 ± 9.4^ab %. Under setting [2], the “% number of osteoclast” value is listed as 35 ± 3.9^ac %.
The like results for `N=C(NO)c1ccc(OCCCCCOc2ccc(-c3nc(N4CCCCC4)sc3CC3CCCC3)cc2)cc1` [Compound 167, N-hydroxy-4-{5-[4-(5-cyclopentylmethyl-2-piperidino-1,3-thiazol-4-yl)phenoxy]pentyloxy}-benzamidine] were, in that order, 72 ± 9.8%, 25 ± 1.9^b % and 31 ± 7.6^ac %.
Regarding `N=C(NO)c1ccc(OCCCCCOc2ccc(-c3nc(N4CCOCC4)sc3CC3CCCC3)cc2)cc1` [Compound 168, N-hydroxy-4-{5-[4-(5-cyclopentylmethyl-2-morpholino-1,3-thiazol-4-yl)phenoxy]pentyloxy}-benzamidine], the activity at 0.1 µM worked out at 70 ± 9.1%. The “% number of osteoclast” value under setting [1] is 39 ± 5.2^ab %. Further, under setting [2], the “% number of osteoclast” value is given as 29 ± 9.7^ac %.
`N=C(NO)c1ccc(OCCCCCOc2ccc(-c3nc(N4CCOCC4)sc3C3CCCC3)cc2)cc1` [Compound 172, N-hydroxy-4-{5-[4-(5-cyclopentyl-2-morpholin-4-yl-1,3-thiazol-4-yl)phenoxy]pentyloxy}-benzamidine]: the activity at 0.1 µM is 57 ± 5.1%. Moreover, under setting [1], the “% number of osteoclast” value is 33 ± 5.3^ab %. In addition, the “% number of osteoclast” value under setting [2] is listed as 26 ± 5.1^a %.
Turning to `CCc1sc(N2CCN(C)CC2)nc1-c1ccc(OCCCCCOc2ccc(C(=N)NO)cc2)cc1` [Compound 174, N-hydroxy-4-{5-(4-[5-ethyl-2-(4-methylpiperazino)-1,3-thiazol-4-yl]phenoxy)pentyloxy}-benzamidine], the activity at 0.1 µM was determined as 70 ± 2.5%. Also, the “% number of osteoclast” value under setting [1] was 46 ± 2.6^ab %. Moreover, the “% number of osteoclast” value under setting [2] is given as 35 ± 5.1^ac %.
For the compound `Cc1nc(-c2ccc(OCCCCCNc3ccc(C(=N)NO)cc3)cc2)c(C(C)C)s1` [Compound 177, N-hydroxy-4-{5-[4-(5-isopropyl-2-methyl-1,3-thiazol-4-yl)-phenoxy]-pentylamino}-benzamidine], the activity at 0.1 µM stood at 74 ± 10.1%. For the same compound, the “% number of osteoclast” value under setting [1] is recorded as 34 ± 10.2^ab %. For the same compound, the “% number of osteoclast” value under setting [2] was 34 ± 5.7^ac %.
The like results for `Cc1nc(-c2ccc(OCCCCC(=O)Nc3ccc(C(=N)NO)cc3)cc2)c(C(C)C)s1` [Compound 182, N-hydroxy-4-{5-[4-(5-isopropyl-2-methyl-1,3-thiazol-4-yl)-phenoxy]-pentanoyl-amino}-benzamidine] were, in that order, 82 ± 12%, 45 ± 6.7% and 41 ± 5.1^c %.
For `Cc1nc(-c2ccc(OCCCCCN(C)c3ccc(C(=N)NO)cc3)cc2)c(C(C)C)s1` [Compound 183, N-hydroxy-4-({5-[4-(5-isopropyl-2-methyl-1,3-thiazol-4-yl)-phenoxy]-pentyl}-methyl-amino)-benzamidine], the activity at 0.1 µM turned out to be 66 ± 7.4%. Also, the “% number of osteoclast” value under setting [1] was 26 ± 6.1^ab %. For the same compound, the “% number of osteoclast” value under setting [2] is listed as 37 ± 5.3^ac %.
Take `Cc1nc(-c2ccc(OCC=CCOc3ccc(C(=N)NO)cc3)cc2)c(C(C)C)s1` [Compound 184, N-hydroxy-4-{4-[4-(5-isopropyl-2-methyl-1,3-thiazol-4-yl)-phenoxy]-but-2-enyloxy}-benzamidine]: the activity at 0.1 µM was found to be 62 ± 4.6%. Also, under setting [1], the “% number of osteoclast” value was 38 ± 3.7^ab %. Besides, the “% number of osteoclast” value under setting [2] is recorded as 38 ± 6.9^ac %.
`Cc1nc(-c2ccc(OCc3ccc(COc4ccc(C(=N)NO)cc4)cc3)cc2)c(C(C)C)s1` [Compound 185, N-hydroxy-4-{4-[4-(5-isopropyl-2-methyl-1,3-thiazol-4-yl)-phenoxymethyl]-benzyloxy}-benzamidine]: the activity at 0.1 µM is 81 ± 7%. The “% number of osteoclast” value under setting [1] worked out at 57 ± 13.9%. Moreover, under setting [2], the “% number of osteoclast” value is 45 ± 1.4^ac %.
Turning to `Cc1nc(-c2ccc(OCCCCCOc3ccc(C(=N)NO)c(O)c3)cc2)c(C(C)C)s1` [Compound 188, 2,N-dihydroxy-4-{5-[4-(5-isopropyl-2-methyl-1,3-thiazol-4-yl)-phenoxy]-pentyloxy}-benzamidine], the activity at 0.1 µM turned out to be 56 ± 5.4%. Also, the “% number of osteoclast” value under setting [1] was 35 ± 3.2^ab %. The “% number of osteoclast” value under setting [2] is given as 23 ± 5.1^ac %.
In the case of `Cc1nc(-c2ccc(OCCCOc3ccc(C(=N)NO)cc3)cc2)c(C(C)C)s1` [Compound 193, N-hydroxy-4-{3-[4-(5-isopropyl-2-methyl-1,3-thiazol-4-yl)phenoxy]propoxy}-benzamidine], the activity at 0.1 µM worked out at 48 ± 4.4%. The “% number of osteoclast” value under setting [1] is 34 ± 5.0^ab %. Also, under setting [2], the “% number of osteoclast” value is given as 27 ± 4.8^ac %.
The like results for `Cc1nc(-c2ccc(OCCCCOc3ccc(C(=N)NO)cc3)cc2)c(C(C)C)s1` [Compound 194, N-hydroxy-4-{4-[4-(5-isopropyl-2-methyl-1,3-thiazol-4-yl)phenoxy]butoxy}-benzamidine] were, in that order, 74 ± 10.1%, 33 ± 7.1^ab % and 30 ± 7.0^ac %.
The like results for `CCc1sc(C2CCCCC2)nc1-c1ccc(OCCCCOc2ccc(C(=N)NO)cc2)cc1` [Compound 196, N-hydroxy-4-{4-[4-(2-cyclohexyl-5-ethyl-thiazol-4-yl)-phenoxy]-butoxy}-benzamidine] were, in that order, 68 ± 7.1%, 37 ± 4.6^ab % and 42 ± 8.8^ac %.
`Cc1nc(-c2ccc(OCc3ccccc3COc3ccc(C(=N)NO)cc3)cc2)c(C(C)C)s1` [Compound 208, N-hydroxy-4-{2-[4-(5-isopropyl-2-methyl-thiazol-4-yl)-phenoxymethyl]-benzyloxy}-benzamidine]: the activity at 0.1 µM was 92 ± 5.8%. For the same compound, under setting [1], the “% number of osteoclast” value was found to be 75 ± 6.3%. Further, the “% number of osteoclast” value under setting [2] was 67 ± 6.5^ac %.
`Cc1nc(-c2ccc(OCc3cccc(COc4ccc(C(=N)NO)cc4)c3)cc2)c(C(C)C)s1` [Compound 209, N-hydroxy-4-{3-[4-(5-isopropyl-2-methyl-thiazol-4-yl)-phenoxymethyl]-benzyloxy}-benzamidine]: the activity at 0.1 µM turned out to be 74 ± 7.4%. Further, the “% number of osteoclast” value under setting [1] is listed as 41 ± 12.0^ab %. In addition, the “% number of osteoclast” value under setting [2] was 50 ± 6.1^ac %.
For `Cc1nc(-c2ccc(OCCCCCOc3ccc(C(=N)NO)cc3)cc2)c(CCN2CCCCC2)s1` [Compound 216, N-hydroxy-4-(5-{4-[2-methyl-5-(2-piperidin-1-yl-ethyl)-thiazol-4-yl]-phenoxy}-pentyloxy)-benzamidine], the activity at 0.1 µM was found to be 70 ± 5%. Moreover, under setting [1], the “% number of osteoclast” value is given as 72 ± 13.0%. Besides, the “% number of osteoclast” value under setting [2] is 48 ± 7.8^ac %.
The like results for `Cc1nc(-c2ccc(OCCCCCOc3ccc(C(=N)NO)cc3)cc2)c(CCNCCCn2ccnc2)s1` [Compound 218, N-hydroxy-4-[5-(4-{5-[2-(3-imidazol-1-yl-propylamino)-ethyl]-2-methyl-thiazol-4-yl}-phenoxy)-pentyloxy]-benzamidine] were, in that order, 56 ± 1.9%, 39 ± 10.4^b % and 25 ± 7.5^ac %.
In the case of `Cc1nc(-c2ccc(OCCCCCOc3ccc(C(=N)NO)cc3)cc2)c(CCNC(C)C)s1` [Compound 219, N-hydroxy-4-(5-{4-[5-(2-isopropylamino-ethyl)-2-methyl-thiazol-4-yl]-phenoxy}-pentyloxy)-benzamidine], the activity at 0.1 µM was 61 ± 10.5%. Under setting [1], the “% number of osteoclast” value is 51 ± 5.4^b %. Also, the “% number of osteoclast” value under setting [2] is recorded as 40 ± 3.8^c %.
For the compound `Cc1nc(-c2ccc(OCCCCCOc3ccc(C(=N)NO)cc3)cc2)c(CCNCCCOC(C)C)s1` [Compound 220, N-hydroxy-4-[5-(4-{5-[2-(3-isopropoxy-propylamino)-ethyl]-2-methyl-thiazol-4-yl}-phenoxy)-pentyloxy]-benzamidine], the activity at 0.1 µM stood at 69 ± 3.2%. The “% number of osteoclast” value under setting [1] is recorded as 53 ± 4.7^ab %. The “% number of osteoclast” value under setting [2] is listed as 40 ± 5.1^ac %.
On to `Cc1nc(-c2ccc(OCCCCCOc3ccc(C(=N)NO)cc3)cc2)c(CCn2ccnc2)s1` [Compound 222, N-hydroxy-4-(5-{4-[5-(2-imidazol-1-yl-ethyl)-2-methyl-thiazol-4-yl]-phenoxy}-pentyloxy)-benzamidine], for which the activity at 0.1 µM was 74 ± 7.1%. In addition, the “% number of osteoclast” value under setting [1] is 49 ± 6.8^ab %. Further, the “% number of osteoclast” value under setting [2] was 36 ± 6.6^ac %.
For `Cc1nc(-c2ccc(OCCCCCOc3ccc(C(=N)NO)cc3)cc2)c(CCNC2CCCCC2)s1` [Compound 223, N-hydroxy-4-(5-{4-[5-(2-cyclohexylamino-ethyl)-2-methyl-thiazol-4-yl]-phenoxy}-pentyloxy)-benzamidine], the activity at 0.1 µM was 81 ± 3.8%. Moreover, under setting [1], the “% number of osteoclast” value is reported as 73 ± 8.2%. Further, the “% number of osteoclast” value under setting [2] came out at 60 ± 12.6%.
